From article PMC9950745, “A novel promising laccase from the psychrotolerant and halotolerant Antarctic marine Halomonas sp. M68 strain” (Frontiers in Microbiology, 2023)

System: T1, Ant laccase
T1 construct: gene copA
Test: spectrophotometric oxidation assay at […] nm, Michaelis-Menten fit
Format: biochemical
Conditions: 50 mM sodium acetate, pH 5.0, 20°C; partially purified preparation SNP30

## CCn1c(=NN=c2sc3cc(S(=O)(=O)O)ccc3n2CC)sc2cc(S(=O)(=O)O)ccc21 [ABTS, 2,2′-azino-bis (3-ethylbenzothiazoline-6-sulfonic acid)]
  Km: ~2000 µM
